Measured values taken from the supplement of paper PMC10307832.

Experiments:
Test in all cases: relative viability (nuclei count vs DMSO), 5 days (fraction); higher = more cells survive
4EGI-1 + Pictilisib = compound: O=C(O)C(Cc1ccccc1[N+](=O)[O-])=NNc1nc(-c2ccc(Cl)c(Cl)c2)cs1 (mixture of isomers) [4EGI-1] + CS(=O)(=O)N1CCN(Cc2cc3nc(-c4cccc5[nH]ncc45)nc(N4CCOCC4)c3s2)CC1 [Pictilisib] (partner 1 µM)
Summary of the method: (§1)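 Cells from lung cancer lines were seeded into 1536-well plates and, one day later, dosed by pin tool. Treatments were either a single drug or a fixed dose of an anchor drug with five library-drug doses (not always all listed) in √10 steps. After 5 days, nuclei were stained in a one-step fixation (final 0.05% Triton X-100, 1% formaldehyde, 1 ug/ml Hoechst) and counted on 4× images, and relative viability is the treated-to-vehicle nuclei ratio, as the median of duplicate plates.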

XMD8-85 + Alpelisib = compound: CN1CCN(CC1)C2=CC(=C(C=C2)NC3=NC=C4C(=N3)N(C5=CC=CC=C5C(=O)N4C)C)OC [XMD8-85] + Cc1nc(NC(=O)N2CCC[C@H]2C(N)=O)sc1-c1ccnc(C(C)(C)C(F)(F)F)c1 [Alpelisib] (partner 2 µM)
Summary of the method: as §1

XMD8-85 + Palbociclib = compound: CN1CCN(CC1)C2=CC(=C(C=C2)NC3=NC=C4C(=N3)N(C5=CC=CC=C5C(=O)N4C)C)OC [XMD8-85] + CC(=O)c1c(C)c2cnc(Nc3ccc(N4CCNCC4)cn3)nc2n(C2CCCC2)c1=O [Palbociclib] (partner 0.5 µM)
Summary of the method: as §1

4EGI-1 + Pemetrexed = compound: O=C(O)C(Cc1ccccc1[N+](=O)[O-])=NNc1nc(-c2ccc(Cl)c(Cl)c2)cs1 (mixture of isomers) [4EGI-1] + Nc1nc2[nH]cc(CCc3ccc(C(=O)N[C@@H](CCC(=O)O)C(=O)O)cc3)c2c(=O)[nH]1 [Pemetrexed] (partner 0.2 µM)
Summary of the method: as §1

| Cell Line | relative viability (4EGI-1 + Pictilisib; first compound 0.5 µM) | relative viability (4EGI-1 + Pictilisib; first compound 1.581 µM) | relative viability (4EGI-1 + Pictilisib; first compound 5 µM) | relative viability (4EGI-1 + Pictilisib; first compound 15.81 µM) | relative viability (4EGI-1 + Pictilisib; first compound 50 µM) | relative viability (XMD8-85 + Alpelisib; first compound 0.08 µM) | relative viability (XMD8-85 + Alpelisib; first compound 0.253 µM) | relative viability (XMD8-85 + Alpelisib; first compound 0.8 µM) | relative viability (XMD8-85 + Alpelisib; first compound 2.53 µM) | relative viability (XMD8-85 + Alpelisib; first compound 8 µM) | relative viability (XMD8-85 + Palbociclib; first compound 0.08 µM) | relative viability (XMD8-85 + Palbociclib; first compound 0.253 µM) | relative viability (XMD8-85 + Palbociclib; first compound 0.8 µM) | relative viability (XMD8-85 + Palbociclib; first compound 2.53 µM) | relative viability (XMD8-85 + Palbociclib; first compound 8 µM) | relative viability (4EGI-1 + Pemetrexed; first compound 0.5 µM) | relative viability (4EGI-1 + Pemetrexed; first compound 1.581 µM) | relative viability (4EGI-1 + Pemetrexed; first compound 5 µM) | relative viability (4EGI-1 + Pemetrexed; first compound 15.81 µM) | relative viability (4EGI-1 + Pemetrexed; first compound 50 µM) |
| --- | --- | --- | --- | --- | --- | --- | --- | --- | --- | --- | --- | --- | --- | --- | --- | --- | --- | --- | --- | --- |
| NCI-H1437 | 0.532 | 0.478 | 0.533 | 0.256 | 0.126 | 0.914 | 0.992 | 1.07 | 0.753 | 0.515 | 0.295 | 0.311 | 0.289 | 0.309 | 0.203 | 0.335 | 0.312 | 0.313 | 0.271 | 0.191 |
| H3255 | 0.578 | 0.431 | 0.516 | 0.361 | 0.453 | 0.586 | 0.745 | 0.68 | 0.776 | 0.406 | 0.33 | 0.323 | 0.285 | 0.273 | 0.26 | 0.598 | 0.574 | 0.524 | 0.453 | 0.395 |
| NCI-H322M | 0.56 | 0.467 | 0.527 | 0.443 | 0.5 | 0.77 | – | 0.819 | 0.784 | 0.782 | 0.466 | 0.447 | 0.457 | 0.444 | 0.431 | 0.576 | – | 0.643 | 0.618 | 0.377 |
| UMC-11 | 1.01 | 0.989 | 0.896 | 0.87 | 0.587 | 0.954 | 0.931 | 1 | 0.939 | 0.387 | 0.359 | 0.336 | 0.347 | 0.308 | 0.318 | 0.841 | 0.792 | 0.863 | 0.805 | 0.52 |
| NCI-H661 | 0.368 | 0.344 | 0.391 | 0.336 | 0.231 | – | 0.596 | 0.551 | 0.819 | 0.552 | 0.401 | – | 0.4 | 0.443 | 0.346 | 0.939 | 0.834 | 0.92 | 0.761 | 0.334 |
| NCI-H1915 | 0.943 | 0.558 | 1.03 | 0.933 | 0.66 | 1.08 | 1.09 | 1.07 | 1.05 | 0.962 | 0.721 | 0.529 | 0.537 | 0.549 | 0.371 | 0.513 | 0.407 | 0.451 | 0.488 | 0.263 |
| NCI-H2009 | 1.08 | 0.772 | 1.06 | 0.843 | 0.169 | 1.17 | 1.03 | 1.14 | 1.03 | 0.586 | 0.198 | 0.208 | 0.184 | 0.163 | 0.154 | 1.01 | 1 | 1.04 | 0.951 | 0.805 |
| RERF-LC-KJ | 0.636 | 0.42 | 0.468 | 0.357 | 0.581 | 0.763 | 0.675 | 0.957 | 0.915 | 0.677 | 1.09 | 1.13 | 1.18 | 1.23 | 0.768 | 0.51 | 0.351 | 0.444 | 0.457 | 0.431 |
| 201T | 0.702 | 0.655 | 0.707 | 0.638 | 0.603 | 0.966 | 1.05 | 1 | 1.08 | 0.901 | 0.342 | 0.321 | 0.36 | 0.34 | 0.325 | 0.338 | 0.368 | 0.387 | 0.334 | 0.348 |
| HCC-827 | 1.03 | 0.993 | 0.958 | 0.298 | 0.66 | 0.946 | 1.06 | 0.939 | 1.08 | 0.996 | 0.505 | 0.472 | 0.424 | 0.505 | 0.467 | 0.27 | 0.232 | 0.269 | – | 0.228 |
| NCI-H838 | 0.527 | – | 0.435 | 0.362 | 0.173 | 0.983 | 1.03 | 1.09 | 1.01 | 0.446 | 0.224 | 0.197 | 0.227 | 0.251 | 0.184 | 0.247 | 0.255 | 0.244 | 0.225 | 0.174 |
| NCI-H1734 | 0.52 | 0.359 | 0.463 | 0.397 | 0.316 | 0.652 | 0.678 | 0.745 | 0.658 | 0.576 | 0.315 | 0.329 | – | 0.384 | 0.281 | 0.403 | 0.433 | 0.464 | 0.441 | 0.362 |
| NCI-H441 | 0.517 | 0.414 | 0.455 | 0.447 | 0.19 | 0.837 | 1.03 | 0.693 | 0.714 | 0.698 | 0.206 | 0.209 | 0.197 | 0.195 | 0.2 | 0.257 | 0.249 | 0.276 | 0.229 | 0.184 |
| NCI-H1355 | 0.372 | 0.396 | 0.493 | 0.362 | 0.277 | 0.844 | 0.89 | 0.807 | 0.731 | – | 0.395 | 0.365 | – | 0.619 | 0.306 | 0.967 | 0.927 | 0.99 | 0.963 | 0.589 |
| HCC-44 | 0.75 | 0.515 | 0.653 | 0.527 | 0.299 | 0.835 | 0.79 | 0.852 | 0.64 | 0.307 | 0.993 | 1.06 | 1.08 | 0.993 | 0.946 | 0.609 | 0.634 | 0.549 | 0.584 | 0.593 |
| NCI-H2085 | 0.538 | 0.513 | 0.52 | 0.507 | 0.439 | 0.966 | 0.917 | 1.01 | 0.852 | 0.728 | 0.446 | 0.452 | 0.419 | 0.475 | 0.397 | 0.979 | 0.954 | 0.915 | 0.646 | 0.621 |
